Assay results reported in ChEMBL document CHEMBL1201862, “PubChem BioAssay data set” (2004).
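Step 1: Grow cells in 96-well plates. Step 2: Expose to compound for 48 hours at 5 concentrations. Step 3: Interpolate endpoints linearly; if unreached, use highest concentration. GI50: concentration for 50% inhibition of growth.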 Calls of active or inactive are those of the source. Cut-off read from the data, not from the text of the source: active = GI50 up to about 1.1 µM and inactive = higher.

Assays:
Test in all cases: NCI tumour cell line growth inhibition, 48 h
OVCAR-8 = test system: OVCAR-8
SN12C = test system: SN12C
OVCAR-5 = test system: OVCAR-5
SR = test system: SR
SF-539 = test system: SF-539
T47D = test system: T47D
UACC-257 = test system: UACC-257
U-251 = test system: U-251
SK-MEL-2 = test system: SK-MEL-2
SK-OV-3 = test system: SK-OV-3
Malme-3M = test system: Malme-3M
OVCAR-4 = test system: OVCAR-4
CCRF-CEM = test system: CCRF-CEM
MOLT-4 = test system: MOLT-4
MCF7 = test system: MCF7
SW-620 = test system: SW-620
DU-145 = test system: DU-145
COLO 205 = test system: COLO 205
UACC-62 = test system: UACC-62
SF-268 = test system: SF-268

Row | Structure (SMILES) | GI50 (OVCAR-8) | GI50 (SN12C) | GI50 (OVCAR-5) | GI50 (SR) | GI50 (SF-539) | GI50 (T47D) | GI50 (UACC-257) | GI50 (U-251) | GI50 (SK-MEL-2) | GI50 (SK-OV-3) | GI50 (Malme-3M) | GI50 (OVCAR-4) | GI50 (CCRF-CEM) | GI50 (MOLT-4) | GI50 (MCF7) | GI50 (SW-620) | GI50 (DU-145) | GI50 (COLO 205) | GI50 (UACC-62) | GI50 (SF-268)
1 | CC1(C)CC(=O)C(C(c2cccc(O)c2O)C2C(=O)CC(C)(C)CC2=O)C(=O)C1 | 81.7 µM (inactive) | > 100 µM (inactive) | > 100 µM (inactive) | 36 µM (inactive) | > 100 µM (inactive) | 91.2 µM (inactive) | > 100 µM (inactive) | > 100 µM (inactive) | 76.6 µM (inactive) | > 100 µM (inactive) | > 100 µM (inactive) | > 100 µM (inactive) | 20.1 µM (inactive) | 30.3 µM (inactive) | 49.2 µM (inactive) | > 100 µM (inactive) | > 100 µM (inactive) | > 100 µM (inactive) | > 100 µM (inactive) | 73.8 µM (inactive)
2 | c1ccc2c[n+](CCCCCCCCCC[n+]3ccc4ccccc4c3)ccc2c1 | > 10 µM (inactive) | 0.92 µM (active) | > 5.09 µM (inactive) | > 10 µM (inactive) | > 10 µM (inactive) | > 10 µM (inactive) | 3.48 µM (inactive) | > 8.59 µM (inactive) | > 10 µM (inactive) | > 10 µM (inactive) | > 10 µM (inactive) | > 10 µM (inactive) | > 10 µM (inactive) | – | > 10 µM (inactive) | > 10 µM (inactive) | > 4.81 µM (inactive) | 4.76 µM (inactive) | > 10 µM (inactive) | > 10 µM (inactive)
3 | COC(=O)C12OCC34C(CC5C(C)=C(O)C(=O)CC5(C)C3C(O)C1O)OC(=O)C(OC(=O)C=C(C)C)C24 (centres undefined) | > 500 µM (inactive) | > 500 µM (inactive) | > 500 µM (inactive) | 0.215 µM (active) | > 500 µM (inactive) | 0.0132 µM (active) | 423 µM (inactive) | 316 µM (inactive) | > 500 µM (inactive) | > 500 µM (inactive) | 228 µM (inactive) | < 0.215 µM (active) | 307 µM (inactive) | 297 µM (inactive) | 256 µM (inactive) | > 500 µM (inactive) | 0.318 µM (active) | > 500 µM (inactive) | > 500 µM (inactive) | > 500 µM (inactive)
4 | COC(=O)/C=C/C1(O)C=CC(=O)C=C1 | 3.4 µM (inactive) | 1.77 µM (inactive) | 5.78 µM (inactive) | 2.55 µM (inactive) | 2.15 µM (inactive) | 2.67 µM (inactive) | 3.3 µM (inactive) | 3.67 µM (inactive) | 6.32 µM (inactive) | 17 µM (inactive) | 2.62 µM (inactive) | 3.94 µM (inactive) | 1.77 µM (inactive) | 2.02 µM (inactive) | 2.87 µM (inactive) | 5.7 µM (inactive) | 2.59 µM (inactive) | 3.4 µM (inactive) | 3 µM (inactive) | 2.22 µM (inactive)
5 | COc1ccccc1C[C@@H]1OC2(C=CC(=O)CC2SC(=O)c2ccccc2)O[C@H]1Cc1ccccc1OC (some centres undefined) | 0.216 µM (active) | 2.52 µM (inactive) | 1.19 µM (inactive) | 0.308 µM (active) | 1.67 µM (inactive) | 1.6 µM (inactive) | 1.51 µM (inactive) | 1.44 µM (inactive) | 1.71 µM (inactive) | 2.17 µM (inactive) | 1.77 µM (inactive) | 1.33 µM (inactive) | 0.294 µM (active) | 0.449 µM (active) | 0.363 µM (active) | 0.324 µM (active) | 3.78 µM (inactive) | 1.69 µM (inactive) | 2.71 µM (inactive) | 1.02 µM (active)
6 | COC(=O)[C@@H]1Cc2cc(O)c(O)cc2C2(CCN(C)CC2)O1 | > 10 µM (inactive) | > 10 µM (inactive) | > 10 µM (inactive) | > 10 µM (inactive) | > 10 µM (inactive) | > 10 µM (inactive) | > 10 µM (inactive) | > 10 µM (inactive) | > 10 µM (inactive) | > 10 µM (inactive) | > 10 µM (inactive) | > 10 µM (inactive) | > 10 µM (inactive) | > 10 µM (inactive) | > 10 µM (inactive) | > 10 µM (inactive) | > 10 µM (inactive) | > 10 µM (inactive) | > 10 µM (inactive) | > 10 µM (inactive)
7 | CC(=O)OC[C@H]1On2nnnc2[C@H](OC(C)=O)[C@@H](OC(C)=O)[C@@H]1OC(C)=O | > 100 µM (inactive) | > 100 µM (inactive) | > 100 µM (inactive) | > 100 µM (inactive) | > 100 µM (inactive) | > 100 µM (inactive) | > 100 µM (inactive) | > 100 µM (inactive) | > 100 µM (inactive) | > 100 µM (inactive) | > 100 µM (inactive) | > 100 µM (inactive) | > 100 µM (inactive) | > 100 µM (inactive) | > 100 µM (inactive) | > 100 µM (inactive) | > 100 µM (inactive) | > 100 µM (inactive) | > 100 µM (inactive) | > 100 µM (inactive)
8 | CN(C)CCNC(=O)c1cccc2c(NCCN(C)C)c3ccccc3nc12 | 3.19 µM (inactive) | 1.73 µM (inactive) | 2.89 µM (inactive) | 0.982 µM (active) | 3.05 µM (inactive) | 14.6 µM (inactive) | 5.14 µM (inactive) | 2.69 µM (inactive) | 5.28 µM (inactive) | 7.4 µM (inactive) | 3.85 µM (inactive) | 2.49 µM (inactive) | 2 µM (inactive) | 1 µM (active) | 2.36 µM (inactive) | 2.33 µM (inactive) | 3.82 µM (inactive) | 1.92 µM (inactive) | 4.55 µM (inactive) | 3.07 µM (inactive)
9 | COc1ccc2c(-c3csc(-c4c[nH]c5ccccc45)n3)c[nH]c2c1 | 7.85 µM (inactive) | 7.57 µM (inactive) | 7.8 µM (inactive) | 1.56 µM (inactive) | 5.73 µM (inactive) | 6.32 µM (inactive) | 12.7 µM (inactive) | 5.19 µM (inactive) | 14.5 µM (inactive) | 17.7 µM (inactive) | 4.95 µM (inactive) | 11 µM (inactive) | 4.36 µM (inactive) | 3.86 µM (inactive) | 4.36 µM (inactive) | 6.92 µM (inactive) | 9.18 µM (inactive) | 6.59 µM (inactive) | 11.5 µM (inactive) | 4.14 µM (inactive)
10 | Cc1c(Cl)ccc2c1NC(=O)C2(O)CC(=O)c1ccc(Cl)cc1Cl (centres undefined) | > 50 µM (inactive) | > 50 µM (inactive) | > 50 µM (inactive) | 0.264 µM (active) | 17.7 µM (inactive) | > 50 µM (inactive) | > 50 µM (inactive) | 22.6 µM (inactive) | > 50 µM (inactive) | > 45.9 µM (inactive) | > 47.9 µM (inactive) | > 50 µM (inactive) | 10.3 µM (inactive) | 22.5 µM (inactive) | > 50 µM (inactive) | > 50 µM (inactive) | > 50 µM (inactive) | > 50 µM (inactive) | > 50 µM (inactive) | > 50 µM (inactive)
